pKi: −log10 of the molar value.

The assay deals with H3 receptor (Rattus norvegicus, UniProt Q9QYN8). In words: H3 receptor binding, (3H)-N-α-methylhistamine displacement in rat cortical membranes. Particulars: male Sprague-Dawley rat brain cortical membranes, 30 minutes at 25° C., Cheng-Prusoff, geometric mean values of 2-10 separate experiments. The protocol: Briefly, male Sprague-Dawley rat brain cortices were homogenized (1 g tissue/10 mL buffer) in 50 mM Tris-HCl/5 mM EDTA containing protease inhibitor cocktail (Calbiochem) using a polytron set at 20,500 rpm. Homogenates were centrifuged for 20 minutes at 40,000×g. The supernatant was decanted, and pellets were weighed. The pellet was resuspended by polytron homogenization in 40 mL 50 mM Tris-HCl/5 mM EDTA with protease inhibitors and centrifuged for 20 minutes at 40,000×g. […] Test compounds were added to the incubation mixtures prior to initiating the incubation assay by addition of the membranes. Thioperamide (3 μM) was used to determine nonspecific binding. Binding incubations were conducted for 30 minutes at 25° C. and terminated by addition of 2 mL of ice cold 50 mM Tris-HCl (H 7.7) and filtration through 0.3% polyethylenimine-soaked Unifilter plates (Packard). These filters were washed 4 additional times with 2 mL of ice-cold 50 mM Tris-HCl and dried for 1 hour. Radioactivity was determined using liquid scintillation counting techniques. Results were analyzed by Hill transformation and Ki values were determined using the Cheng-Prusoff equation.
Sequence of H3 receptor (Q9QYN8 1-397 isoform Q9QYN8-3): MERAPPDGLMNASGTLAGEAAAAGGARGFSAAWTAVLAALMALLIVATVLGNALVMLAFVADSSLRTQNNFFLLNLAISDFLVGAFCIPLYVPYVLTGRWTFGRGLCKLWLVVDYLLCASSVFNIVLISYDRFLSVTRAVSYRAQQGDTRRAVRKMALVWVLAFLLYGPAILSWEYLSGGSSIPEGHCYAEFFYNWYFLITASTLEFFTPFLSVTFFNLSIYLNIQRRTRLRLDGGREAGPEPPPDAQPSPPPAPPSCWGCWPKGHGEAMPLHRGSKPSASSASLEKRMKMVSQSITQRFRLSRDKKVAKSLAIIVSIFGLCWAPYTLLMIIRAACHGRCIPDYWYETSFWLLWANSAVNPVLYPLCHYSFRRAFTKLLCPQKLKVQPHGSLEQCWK
For orientation: pKi means −log10 of the Ki, conventionally taken in molar units. High values mean a small Ki, low ones a large Ki. Turning to `C[C@@H](NC(=O)c1ccco1)C(=O)N1CCCN(CCCOc2ccc(-c3noc(-c4ccoc4)n3)c(F)c2)CC1` [Example 147, N-{(1R)-2-[4-(3-{3-fluoro-4-[5-(3-furyl)-1,2,4-oxadiazol-3-yl]phenoxy}propyl)-1,4-diazepan-1-yl]-1-methyl-2-oxoethyl}-2-furamide], the pKi is 8.77.
The figure for “Tert-butyl (1R)-1-benzyl-2-(4-(3-(4-(cyclopropylcarbonyl)phenoxy)propyl)-1-piperazinyl)-2-oxoethylcarbamate [Example 79]” is 8.32.
The figure for `C[C@@H](NC(=O)CCN1CCOCC1)C(=O)N1CCN(CCCOc2ccc(-c3noc(-c4ccccc4)n3)c(F)c2)CC1` [Example 164, N-[(1R)-2-(4-{3-[3-fluoro-4-(5-phenyl-1,2,4-oxadiazol-3-yl)-phenoxy]propyl}-1-piperazinyl)-1-methyl-2-oxoethyl]-3-(4-morpholinyl)propanamide] is 8.20; for `O=C(NCCC(=O)N1CCN(CCCOc2ccc(-c3noc(-c4ccccc4)n3)c(F)c2)CC1)c1ccsc1` [Example 154, N-[3-(4-{3-[3-fluoro-4-(5-phenyl-1,2,4-oxadiazol-3-yl)phenoxy]propyl}-1-piperazinyl)-3-oxopropyl]-3-thiophenecarboxamide] it is 7.60.
`COc1cccc(C(=O)N[C@H](C)C(=O)N2CCN(CCCOc3ccc(C(=O)C4CC4)cc3)CC2)c1` [Example 193, N-[(1R)-2-(4-{3-[4-(cyclopropylcarbonyl)phenoxy]propyl}-1-piperazinyl)-1-methyl-2-oxoethyl]-3-methoxybenzamide] showed a pKi of 8.95.
On to `CCC(=O)N[C@H](C)C(=O)N1CCN(CCCOc2ccc(-c3noc(CC4CCCC4)n3)c(F)c2)CC1` [Example 170, N-{(1R)-2-[4-(3-{4-[5-(cyclopentylmethyl)-1,2,4-oxadiazol-3-yl]-3-fluorophenoxy}propyl)-1-piperazinyl]-1-methyl-2-oxoethyl}propanamide], for which the pKi is 8.06.
The figure for `C[C@@H](NC(=O)c1ccco1)C(=O)N1CCCN(CCCOc2ccc(-c3noc(-c4ccncc4)n3)c(F)c2)CC1` [Example 150, N-{(1R)-2-[4-(3-{3-fluoro-4-[5-(4-pyridinyl)-1,2,4-oxadiazol-3-yl]phenoxy}propyl)-1,4-diazepan-1-yl]-1-methyl-2-oxoethyl}-2-furamide] is 7.90; for `C[C@@H](NC(=O)[C@H]1CCCN1)C(=O)N1CCN(CCCOc2ccc(C(=O)C3CC3)cc2)CC1` [Example 129, (2R)-N-((1R)-2-(4-(3-(4-(cyclopropylcarbonyl)phenoxy)propyl)-1-piperazinyl)-1-methyl-2-oxoethyl)-2-pyrrolidinecarboxamide] it is 9.37; for `C[C@@H](NC(=O)c1cccnc1)C(=O)N1CCN(CCCOc2ccc(-c3noc(-c4ccccc4)n3)c(F)c2)CC1` [Example 160, N-[(1R)-2-(4-{3-[3-fluoro-4-(5-phenyl-1,2,4-oxadiazol-3-yl)phenoxy]propyl}-1-piperazinyl)-1-methyl-2-oxoethyl]nicotinamide] it is 8.64.
The figure for `CC(C)CC(=O)N[C@H](C)C(=O)N1CCN(CCCOc2ccc(-c3noc(-c4ccccc4)n3)c(F)c2)CC1` [Example 165, N-[(1R)-2-(4-{3-[3-fluoro-4-(5-phenyl-1,2,4-oxadiazol-3-yl)phenoxy]propyl}-1-piperazinyl)-1-methyl-2-oxoethyl]-3-methylbutanamide] is 7.96; for `C[C@@H](NC(=O)c1ccc(Cl)c(Cl)c1)C(=O)N1CCN(CCCOc2ccc(-c3noc(CC4CCCC4)n3)c(F)c2)CC1` [Example 176, 3,4-dichloro-N-{(1R)-2-[4-(3-{4-[5-(cyclopentylmethyl)-1,2,4-oxadiazol-3-yl]-3-fluorophenoxy}propyl)-1-piperazinyl]-1-methyl-2-oxoethyl}benzamide] it is 8.91; for `O=C(c1ccc(OCCCN2CCCN(C(=O)C[C@@H]3CCCN3)CC2)cc1)C1CC1` [Example 124, Cyclopropyl(4-(3-(4-((2S)-pyrrolidinylacetyl)-1,4-diazepan-1-yl)propoxy)phenyl)methanone] it is 8.39.
The figure for `CCCc1nc(-c2ccc(OCCCN3CCCN(C(=O)[C@@H](C)NC(=O)c4ccco4)CC3)cc2F)no1` [Example 141, N-[(1R)-2-(4-{3-[3-fluoro-4-(5-propyl-1,2,4-oxadiazol-3-yl)phenoxy]propyl}-1,4-diazepan-1-yl)-1-methyl-2-oxoethyl]-2-furamide] is 8.63; for `C[C@H](NC(=O)OC(C)(C)C)c1nc(-c2ccc(OCCCN3CCCN(C(=O)[C@@H](C)NC(=O)c4ccco4)CC3)cc2F)no1` [Example 146, Tert-butyl (1S)-1-{3-[2-fluoro-4-(3-{4-[(2R)-2-(2-furoylamino)propanoyl]-1,4-diazepan-1-yl}propoxy)phenyl]-1,2,4-oxadiazol-5-yl}ethylcarbamate] it is 8.04; for `COc1ccc(C(=O)N[C@H](C)C(=O)N2CCN(CCCOc3ccc(-c4noc(CC5CCCC5)n4)c(F)c3)CC2)cc1` [Example 175, N-{(1R)-2-[4-(3-{4-[5-(cyclopentylmethyl)-1,2,4-oxadiazol-3-yl]-3-fluorophenoxy}propyl)-1-piperazinyl]-1-methyl-2-oxoethyl}-4-methoxybenzamide] it is 8.73.
`CC(C)C(=O)N[C@H](C)C(=O)N1CCCN(CCCOc2ccc(-c3noc(CC4CCCC4)n3)c(F)c2)CC1` [Example 177, N-{(1R)-2-[4-(3-{4-[5-(cyclopentylmethyl)-1,2,4-oxadiazol-3-yl]-3-fluorophenoxy}propyl)-1,4-diazepan-1-yl]-1-methyl-2-oxoethyl}-2-methylpropanamide]: the pKi was 8.75.
The figure for `C[C@@H](NC(=O)c1ccc(N(C)C)cc1)C(=O)N1CCN(CCCOc2ccc(-c3noc(CC4CCCC4)n3)c(F)c2)CC1` [Example 180, N-{(1R)-2-[4-(3-{4-[5-(cyclopentylmethyl)-1,2,4-oxadiazol-3-yl]-3-fluorophenoxy}propyl)-1-piperazinyl]-1-methyl-2-oxoethyl}-4-(dimethylamino)benzamide] is 8.63; for `C[C@@H](NC(=O)c1ccco1)C(=O)N1CCN(CCCOc2ccc(-c3noc(-c4ccccc4)n3)c(F)c2)CC1` [Example 161, N-[(1R)-2-(4-{3-[3-fluoro-4-(5-phenyl-1,2,4-oxadiazol-3-yl)phenoxy]propyl}-1-piperazinyl)-1-methyl-2-oxoethyl]-2-furamide] it is 8.62; for `N#Cc1ccc(-c2ccc(OCCN3CCN(C(=O)[C@@H]4CCCN4)CC3)cc2)cc1` [Example 140, 4′-(2-(4-((2S)-pyrrolidinylcarbonyl)-1-piperazinyl)ethoxy)(1,1′-biphenyl)-4-carbonitrile] it is 6.09.
Take `O=C(c1ccc(OCCCN2CCN(C(=O)C[C@H]3CCCN3)CC2)cc1)C1CC1` [Example 86, Cyclopropyl(4-(3-(4-((2R)-pyrrolidinylacetyl)-1-piperazinyl)propoxy)phenyl)methanone]: the pKi was 8.33.
The figure for `C[C@@H](NC(=O)c1ccc(C(=O)O)cc1)C(=O)N1CCN(CCCOc2ccc(-c3noc(CC4CCCC4)n3)c(F)c2)CC1` [Example 186, 4-[({(1R)-2-[4-(3-{4-[5-(cyclopentylmethyl)-1,2,4-oxadiazol-3-yl]-3-fluorophenoxy}propyl)-1-piperazinyl]-1-methyl-2-oxoethyl}amino)carbonyl]benzoic acid] is 8.05.
With `C[C@@H](NC(=O)CC(C)(C)C)C(=O)N1CCN(CCCOc2ccc(-c3noc(CC4CCCC4)n3)c(F)c2)CC1` [Example 171, N-{(1R)-2-[4-(3-{4-[5-(cyclopentylmethyl)-1,2,4-oxadiazol-3-yl]-3-fluorophenoxy}propyl)-1-piperazinyl]-1-1-methyl-2-oxoethyl}-3,3-dimethylbutanamide], the pKi is 8.27.
Turning to `C[C@@H](NC(=O)c1cccs1)C(=O)N1CCN(CCCOc2ccc(-c3noc(-c4cccc(C#N)c4)n3)c(F)c2)CC1` [Example 188, N-{(1R)-2-[4-(3-{4-[5-(3-cyanophenyl)-1,2,4-oxadiazol-3-yl]-3-fluorophenoxy}propyl)-1-piperazinyl]-1-methyl-2-oxoethyl}-2-thiophenecarboxamide], the pKi was 8.37.
In turn, `C[C@@H](NC(=O)c1ccc(Br)cc1)C(=O)N1CCN(CCCOc2ccc(C(=O)C3CC3)cc2)CC1` [Example 194, 4-bromo-N-[(1R)-2-(4-{3-[4-(cyclopropylcarbonyl)phenoxy]propyl}-1-piperazinyl)-1-methyl-2-oxoethyl]benzamide] gave a pKi of 8.93.
The figure for `C[C@@H](NC(=O)c1ccco1)C(=O)N1CCN(CCCOc2ccc(C(=O)C3CC3)cc2)CC1` [Example 126, N-((1R)-2-(4-(3-(4-(cyclopropylcarbonyl)phenoxy)propyl)-1-piperazinyl)-1-methyl-2-oxoethyl)-2-furamide] is 9.13.
The figure for `Cc1cc(C(=O)NCCC(=O)N2CCN(CCCOc3ccc(-c4noc(-c5ccccc5)n4)c(F)c3)CC2)c(C)o1` [Example 157, N-[3-(4-{3-[3-fluoro-4-(5-phenyl-1,2,4-oxadiazol-3-yl)phenoxy]propyl}-1-piperazinyl)-3-oxopropyl]-2,5-dimethyl-3-furamide] is 7.34; for `CC(C)OCc1nc(-c2ccc(OCCCN3CCCN(C(=O)[C@@H](C)NC(=O)c4ccco4)CC3)cc2F)no1` [Example 143, N-{(1R)-2-[4-(3-{3-fluoro-4-[5-(isopropoxymethyl)-1,2,4-oxadiazol-3-yl]phenoxy}propyl)-1,4-diazepan-1-yl]-1-methyl-2-oxoethyl}-2-furamide] it is 8.40.

For the origin of these results see US6559140B2 (Abbott Laboratories, priority 2000, dated 2003).
